Like-named read-outs stand apart in the source and are kept apart here. Square brackets hold non-standard residues; d marks the D form. Ends that are not written are not given here. Peptide text beside a SMILES is read from it. * marks the point of attachment. Palmitoyl = CCCCCCCCCCCCCCCC(=O)*; Myristoyl = CCCCCCCCCCCCCC(=O)*
What was measured:
P. aeruginosa ATCC 10145 = details: CFU assay, 10 mM NaP
S. aureus ATCC 6538 = details: CFU assay, 10 mM NaP

| Compound | LD90 (P. aeruginosa ATCC 10145; pH 5.5, 0.25% glucose) [µg/mL] | LD100 (P. aeruginosa ATCC 10145; pH 5.5, 0.25% glucose) [µg/mL] | LD100 (P. aeruginosa ATCC 10145; pH 5.5, 1% TSB) [µg/mL] | LD90 (P. aeruginosa ATCC 10145; pH 5.5, 1% TSB) [µg/mL] | also measured |
| --- | --- | --- | --- | --- | --- |
| CC(C)C[C@@H](NC(=O)CNC(=O)[C@@H](CO)NC(=O)CNC(=O)[C@@H](Cc1c[nH]cn1)NC(=O)[C@@H](CCCNC(=N)N)NC(=O)CN)C(=O)NCC(=O)N[C@H](Cc1c[nH]cn1)C(=O)N[C@H](CO)C(=O)N[C@H](CO)C(=O)N[C@H](CO)C(=O)N[C@H](Cc1c[nH]cn1)C(=O)NCC(=O)N[C@H](CCC(N)=O)C(=O)N[C@H](Cc1c[nH]cn1)C(=O)NCC(=O)N[C@H](CO)C(=O)NCC(=O)N[C@H](CO)C(=O)NCC(=O)N[C@H](CCCNC(=N)N)C(=O)O [(D)HR 1-18] (H-G[dR][dH]G[dS]G[dL]G[dH][dS][dS][dS][dH]G[dQ][dH]G[dS]G[dS]G[dR]-OH; N-terminus and C-terminus assumed) | 0.038 | 0.3 |  |  |  |
| N=C(N)NCCC[C@H](NC(=O)[C@H](CC(=O)O)NC(=O)[C@H](CS)NC(=O)[C@H](CO)NC(=O)[C@H](CC(N)=O)NC(=O)[C@H](CO)NC(=O)[C@H](CCCNC(=N)N)NC(=O)[C@H](CCC(N)=O)NC(=O)[C@H](CCCNC(=N)N)NC(=O)[C@H](CCCNC(=N)N)NC(=O)[C@H](CS)NC(=O)[C@H](CCC(N)=O)NC(=O)[C@H](Cc1c[nH]cn1)NC(=O)[C@H](CO)NC(=O)[C@H](CCCNC(=N)N)NC(=O)[C@H](Cc1ccccc1)NC(=O)[C@H](Cc1c[nH]cn1)NC(=O)[C@H](CCCNC(=N)N)NC(=O)[C@H](Cc1c[nH]cn1)NC(=O)[C@H](Cc1c[nH]cn1)NC(=O)[C@@H](N)CO)C(=O)O [LCE-3C55-75] (H-SHHRHFRSHQCRRQRSNSCDR-OH; N-terminus and C-terminus assumed) |  |  |  |  | LD90 (S. aureus ATCC 6538; pH 5.5, 0.25% glucose): 0.59 µg/mL; LD100 (S. aureus ATCC 6538; pH 5.5, 0.25% glucose): > 150 µg/mL |
| CCCCCCCCCCCCCC(=O)NCC(=O)N[C@@H](CCCNC(=N)N)C(=O)N[C@@H](CCCNC(=N)N)C(=O)NCC(=O)N[C@@H](CO)C(=O)NCC(=O)N[C@@H](CC(C)C)C(=O)NCC(=O)N[C@@H](CCCNC(=N)N)C(=O)N[C@@H](CO)C(=O)N[C@@H](CO)C(=O)N[C@@H](CO)C(=O)N[C@@H](CCCNC(=N)N)C(=O)NCC(=O)N[C@@H](CCC(N)=O)C(=O)N[C@@H](CCCNC(=N)N)C(=O)NCC(=O)N[C@@H](CO)C(=O)NCC(=O)N[C@@H](CO)C(=O)NCC(=O)N[C@@H](CCCNC(=N)N)C(=O)O [Myr-HR 1-18-HR] (Myristoyl-GRRGSGLGRSSSRGQRGSGSGR-OH; C-terminus assumed) |  |  |  |  | LD90 (S. aureus ATCC 6538; pH 7.3, 1% TSB): 18.75 µg/mL; LD100 (S. aureus ATCC 6538; pH 7.3, 1% TSB): 75 µg/mL |
| CCCCCCCCCCCCCCCC(=O)SC[C@H](NC(=O)[C@H](CO)NC(=O)[C@H](CO)NC(=O)[C@H](CO)NC(=O)[C@H](CCC(N)=O)NC(=O)CNC(=O)[C@H](CO)NC(=O)[C@@H](NC(=O)[C@H](CO)NC(=O)CNC(=O)[C@H](Cc1c[nH]cn1)NC(=O)[C@H](CCC(N)=O)NC(=O)CNC(=O)[C@H](Cc1c[nH]cn1)NC(=O)[C@@H](NC(=O)[C@H](CO)NC(=O)[C@H](CO)NC(=O)[C@H](Cc1c[nH]cn1)NC(=O)CNC(=O)[C@H](CO)NC(=O)[C@H](CO)NC(=O)[C@H](CO)NC(=O)CNC(=O)[C@H](Cc1c[nH]cn1)NC(=O)[C@H](CCC(N)=O)NC(=O)CN)[C@@H](C)O)[C@@H](C)O)C(N)=O [S-Pal-HRNR598–623] (H-GQHGSSSGHSSTHGQHGSTSGQSSSC(Palmitoyl)-NH2; N-terminus assumed) |  |  |  |  | LD90 (S. aureus ATCC 6538; pH 5.5, 0.25% glucose): 2.35 µg/mL; LD100 (S. aureus ATCC 6538; pH 5.5, 0.25% glucose): > 150 µg/mL |
| GGHGSGLGHSSSHGQHGSGSGRSSSRGPY [HR 1-17R1-G] | 0.038 | 0.3 |  |  |  |
| GRGGSGLGGSSSGGQGGSGSGRSSSRGPY [HR 1-174H-4G] | 75 | > 300 |  |  |  |
| GRHGGGGGHGGGHGGHGGGGGR [HR 1-18,L-G/Q-G/6S-6G] |  | 0.15 |  |  |  |
| GRHGSGGGHSSSHGGHGSGSGR [HR 1-18,L-G/Q-G] |  | 0.15 |  |  |  |
| GRHGSGLGHSSSH [HR 1-37] | 9.38 | > 300 |  |  |  |
| GRHGSGLGHSSSHGQH [HR 1-25] | 0.3 | 4.7 |  |  |  |
| GRHGSGLGHSSSHGQHGSGSGGSSSRGPY [HR 1-17R2-G] | 0.038 | 0.15 |  |  |  |
| GRHGSGLGHSSSHGQHGSGSGRSSSGGPY [HR 1-17R3-G] | 0.038 | 0.15 to 0.3 |  |  |  |
| GRHGSGSGHSSSHGQHGSGSGR [HRNR2186-2207] |  | 4.7 to 9.37 |  |  |  |
| GRHGSGSGQSSSYGPYGSGSGWSSSRGPY [HRNR1952-1980] |  |  | > 300 |  |  |
| GRHGSGSGQSSSYGPYRSGSGWSSSRGPY [HRNR1013-1041] |  |  | > 300 |  |  |
| GRHGSGSGQSSSYSPYGSGSGWSSSR [HRNR2422-2447] |  |  | > 300 |  |  |
| GRHGSGSGQSSSYSPYGSGSGWSSSRGPY [HRNR2422-2450] |  |  | > 300 | 2.35 |  |
| GSGSRQSLSYGRHGSGSGR [HR 2-4L] |  |  | > 300 | 75 |  |
| GSGSRQSPSHGRHGSGSGR [HR 2-4H] |  |  | > 300 | 75 |  |
| GSGSRQSPSRGRHGSGSGR [HR 2-4R] |  |  | > 300 |  |  |
| GSGSRQSPSY [HR 2-2] |  |  | > 300 | > 300 |  |
| GSGSRQSPSYGR [HR 2-8] |  |  | > 300 | 37.5 |  |

| Compound | LD90 (P. aeruginosa ATCC 10145; pH 5.5, 0.25% glucose) [µg/mL] | LD100 (P. aeruginosa ATCC 10145; pH 5.5, 0.25% glucose) [µg/mL] | LD100 (P. aeruginosa ATCC 10145; pH 5.5, 1% TSB) [µg/mL] | LD90 (P. aeruginosa ATCC 10145; pH 5.5, 1% TSB) [µg/mL] | also measured |
| --- | --- | --- | --- | --- | --- |
| GSGSRQSPSYGRHGSGSGR [HR 2-4] |  |  | > 300 | > 300 |  |
| GSGSRQSPSYGRHGSGSGRSSSSGQH [HR 2-11] |  |  | > 300 | 37.5 |  |
| GSGSRQSPSYGRQGSGSGR [HR 2-4Q] |  |  | > 300 | > 300 |  |
| GSGSRQSSGHGRQGSGSGQ [HR 1-16] |  |  | > 300 | > 300 |  |
| GSGSRQSSSYGRHGSGSGR [HR 2-4S] |  |  | > 300 | 150 |  |
| GSRQSPSYGRHGSGSGR [HR 2-12] |  |  | > 300 | > 300 |  |
| GSRTAGRRGSGH [FLG-22094-2105] |  | > 300 |  |  |  |
| HAHSGHGQSTQR [FLG-22082-2093] | 0.15 | 2.35 |  |  |  |
| HAHSGHGQSTQRGSR [FLG-22082-2096] | 0.15 | 1.18 |  |  |  |
| HAHSGHGQSTQRGSRTAGRRGSGH [FLG-22082-2105] | < 0.038 | 0.075 |  |  |  |
| HAHYGYGQSTQRGSRTTGRRGSGH [FLG-22232-2255] | 0.075 | 0.59 |  |  |  |
| HGQSTQRGSRTAGRRGSGH [FLG-22087-2105] | 0.075 | 1.18 |  |  |  |
| HGSGLGHSSSHGQHGSGSGR [HR 1-8] | 4.7 | > 300 | > 300 |  |  |
| HGSGSGR [HR 2-9] |  |  | > 300 | > 300 |  |
| HGSRSGQSSRGERHGSSSGSSSH [HR 1-11] | 0.075 |  |  |  |  |
| HGSSSGSSSHYGQHGSGSR [HR 1-4] |  |  | > 300 | 150 |  |
| HSQRGSGSRQSPSYGRH [HR 2-16] |  | 37.5 |  |  |  |
| HSSSHGQHGSGSGR [HR 1-38] |  | > 300 |  |  |  |
| HTHSGHAHGQAGSQHGESGSSVHER [FLG-22044-2068] | 0.038 | 0.3 |  |  |  |
| HTHSGHTHGQAGSHYPESGSSVHER [FLG-21969-1993] | 0.038 | 0.3 |  |  |  |
| HTHSGHTHGQARSQHGESESIVHER [FLG-21742-1766] | 0.038 | 0.15 |  |  |  |
| HTHSGHTHGQSGSQHGESESIIHDR [FLG-21515-1539] | 0.075 | 0.59 |  |  |  |

| Compound | LD90 (P. aeruginosa ATCC 10145; pH 5.5, 0.25% glucose) [µg/mL] | LD100 (P. aeruginosa ATCC 10145; pH 5.5, 0.25% glucose) [µg/mL] | LD100 (P. aeruginosa ATCC 10145; pH 5.5, 1% TSB) [µg/mL] | LD90 (P. aeruginosa ATCC 10145; pH 5.5, 1% TSB) [µg/mL] | also measured |
| --- | --- | --- | --- | --- | --- |
| HTHSGHTHSQARSQHGESESTVHKR [FLG-21894-1918] | 0.038 | 0.3 |  |  |  |
| LGHSSSHGQHGSGSGRSSSRGPYESRLGH [HR 1-36] | 0.15 | 2.35 |  |  |  |
| QGSGSGQSPGHSQRGSGSRQSPSY [HR 2-1] |  |  | > 300 | > 300 |  |
| QGSGSGQSPSR [HR 1-6] |  |  | > 300 | > 300 |  |
| QGSGSGQSPSRGR [HR 1-7] |  |  | > 300 | > 300 |  |
| QSPSY [HR 2-3] |  |  | > 300 | > 300 |  |
| QSPSYGR [HR 2-6] |  |  | > 300 | > 300 |  |
| QSPSYGRHGSGSGR [HR 2-5] |  |  | > 300 | > 300 |  |
| QSSGHGR [HR 1-5] |  |  | > 300 | > 300 |  |
| RGSGSGHQGHSSSHGLGSGHRG [rev-HR 1-18] | < 0.019 | 0.3 |  |  |  |
| RQSPSYGRHGSGSGR [HR 2-14] |  |  | > 300 | 300 |  |
| SGQSSR [HR 1-2] |  |  | > 300 | > 300 |  |
| SGQSSRGER [HR 1-3] |  |  | > 300 | > 300 |  |
| SLSSGHGSGHGHQRGGHRSGSG [scr-HR 1-18] | < 0.019 | 0.15 |  |  |  |
| SQHGSGSGHSSGYGQHGSR [HR 1-1] |  |  | > 300 | > 300 |  |
| SRQSPSYGRHGSGR [HR 2-15] |  |  | > 300 | 75 |  |
| SRQSPSYGRHGSGSGR [HR 2-13] |  |  | > 300 | > 300 |  |
| SSSRGPY [HR 1-10] |  |  | > 300 | > 300 |  |
| SSSSR [HR 1-9] |  |  | > 300 |  |  |
| TAGRRGSGH [FLG-22097-2105] | > 300 | > 300 |  |  |  |
| THEHEQSHQRRDRQTHEDKQNRQR [RPTN747-770] | 0.3 | 150 |  |  |  |

— publication PMC6399351, “Cationic Intrinsically Disordered Antimicrobial Peptides (CIDAMPs) Represent a New Paradigm of Innate Defense with a Potential for Novel Anti-Infectives” (Scientific Reports, 2019)
